Data as given in patent US20250215400A1, “CRYOPRESERVATION MEDIUM COMPRISING HYALURONIC ACID, USE THEREOF AND METHOD OF CRYOPRESERVATION” (CONTIPRO A.S., priority 2022, published 2025).

What was measured:
hMSC cells = test: total number of hMSC cells (CaSy cell counter) after cryopreservation, thawing and two weeks of cultivation; type: cell-based, human; details: Example 1, cryopreservation medium in α-MEM
Experimental: FIG. 1 represents the total number of hMSC cells measured using CaSy cell counter (OMNI Life Science GmbH) after two weeks of cultivation. The data are shown as averages and the standard deviation is shown as an error bar.
Mesenchymal stem cell cultures were cryopreserved. The method of cryopreservation consists of the addition of a cryopreservation medium to the sample and the subsequent […] cryopreservation through a slow freeze at a rate of 1° C./min, for preservation of the sample at low temperatures (−80 C to −196C). The cryopreserved stem cell culture is revived after preservation by thawing in a water bath at 37° C. for 2 minutes and the cryopreservation medium is subsequently washed away from the cellular suspension by centrifugation. The cells are then seeded in a cultivation bottle and cultivated for two weeks.
For cryopreservation, 4 different combinations of cryoprotective medium containing hyaluronic acid with MW 1,500,000 g/mol in two concentrations of 0.1 and 0.2% (w/v) with an addition of 5 or 3% DMSO (v/v) dissolved in a standard α-MEM medium were used. The composition containing 5, 3 or 10% (v/v) DMSO in the medium served as a cryopreservation control.
The mesenchymal stem cells hMSC cultures were cryopreserved. […]

stem cells = details: room temperature; Pal et al., 2012; Tunçer et al., 2018; cited from earlier work

C[S+](C)[O-] [DMSO, dimethyl sulfoxide]
stem cell survival and proliferation efficiency (hMSC cells): lower MSCs survival and proliferation efficiency
concentration range at which an effect on viability, morphology, cell adhesion and differentiation was observed (stem cells): 0.1-1 % (v/v)
